Experiment [1] addresses T1, PI3Kα (Homo sapiens, UniProt P42336).
T1 construct: purchased Millipore Corporation 14-602-K
In words: PI3 Kinase HTRF assay, PI3Kα. Format: biochemical. The note with it: 10 μM PIP2, 10 μM ATP; read-out: PI3K α IC50. A digest of the protocol: (§1)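 Recombinant human PI3K isoforms converting 10 μM PIP2 with 10 μM ATP; compound preincubated 15 min, reaction 1 h at room temperature, 2% DMSO. PIP3 detected by competitive HTRF (GRP1 PH domain displacement); IC50 by nonlinear regression of 12-point curves, 20 μM to 0.1 nM.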

The target of experiment [2] is T2, PI3Kγ (Homo sapiens, UniProt P48736).
T2 construct: purchased Millipore Corporation 14-558-K
T2 sequence (P48736 whole entry): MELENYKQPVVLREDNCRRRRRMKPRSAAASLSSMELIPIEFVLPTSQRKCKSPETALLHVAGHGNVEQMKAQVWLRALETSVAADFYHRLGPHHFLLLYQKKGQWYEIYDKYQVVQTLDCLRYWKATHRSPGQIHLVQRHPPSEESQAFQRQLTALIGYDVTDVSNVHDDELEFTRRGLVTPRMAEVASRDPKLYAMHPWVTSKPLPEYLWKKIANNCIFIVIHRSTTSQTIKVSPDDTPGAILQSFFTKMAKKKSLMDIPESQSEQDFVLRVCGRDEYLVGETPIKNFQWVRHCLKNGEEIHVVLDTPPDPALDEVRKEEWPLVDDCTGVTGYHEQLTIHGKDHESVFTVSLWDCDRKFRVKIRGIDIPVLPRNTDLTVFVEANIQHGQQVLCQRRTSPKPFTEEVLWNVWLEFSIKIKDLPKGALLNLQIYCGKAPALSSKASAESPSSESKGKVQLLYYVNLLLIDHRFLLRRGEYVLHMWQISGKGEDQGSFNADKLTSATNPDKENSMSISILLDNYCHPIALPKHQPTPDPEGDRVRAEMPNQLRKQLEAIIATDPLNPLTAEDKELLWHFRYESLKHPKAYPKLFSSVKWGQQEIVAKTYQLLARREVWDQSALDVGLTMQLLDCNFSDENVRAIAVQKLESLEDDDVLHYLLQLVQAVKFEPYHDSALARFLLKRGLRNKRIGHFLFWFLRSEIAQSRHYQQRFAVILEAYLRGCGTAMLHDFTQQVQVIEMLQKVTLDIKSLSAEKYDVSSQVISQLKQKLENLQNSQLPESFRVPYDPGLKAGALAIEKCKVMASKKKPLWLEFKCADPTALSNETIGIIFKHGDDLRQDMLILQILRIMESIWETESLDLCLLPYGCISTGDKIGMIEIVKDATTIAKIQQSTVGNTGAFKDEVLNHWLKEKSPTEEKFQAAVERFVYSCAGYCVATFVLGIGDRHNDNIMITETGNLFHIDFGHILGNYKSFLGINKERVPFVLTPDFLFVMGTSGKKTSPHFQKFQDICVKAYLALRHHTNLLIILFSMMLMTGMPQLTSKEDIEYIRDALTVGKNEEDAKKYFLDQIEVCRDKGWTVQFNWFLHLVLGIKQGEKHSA
In words: PI3 Kinase HTRF assay, PI3Kγ. Format: biochemical. To be noted: 10 μM PIP2, 10 μM ATP; read-out: PI3K γ IC50. In short, it runs like this: as §1

The subject of experiment [3] is Balb/c splenic B cells. In words: B cell activation and proliferation assay (Alamar Blue). Format: cell-based. The note with it: Mus musculus, read-out: B cell prolif. IC50. The method, then: The ability of one or more subject compounds to inhibit B cell activation and proliferation is determined according to standard procedures known in the art. For example, an in vitro cellular proliferation assay is established that measures the metabolic activity of live cells. The assay is performed in a 96 well microtiter plate using Alamar Blue reduction. Balb/c splenic B cells are purified over a Ficoll-Paque™ PLUS gradient followed by magnetic cell separation using a MACS B cell Isolation Kit (Miletenyi). Cells are plated in 90 ul at 50,000 cells/well in B Cell Media (RPMI+10% FBS+Penn/Strep+50 uM bME+5 mM HEPES). A compound disclosed herein is diluted in B Cell Media and added in a 10 μl volume. Plates are incubated for 30 min at 37 C and 5% CO2 (0.2% DMSO final concentration). A 50 μl B cell stimulation cocktail is then added containing either 10 ug/ml LPS or 5 ug/ml F(ab′)2 Donkey anti-mouse IgM plus 2 ng/ml recombinant mouse IL4 in B Cell Media. Plates are incubated for 72 hours at 37° C. and 5% CO2. A volume of 15 μl of Alamar Blue reagent is added to each well and plates are incubated for 5 hours at 37 C and 5% CO2. Alamar Blue fluoresce is read at 560Ex/590Em, and IC50 or EC50 values are calculated using GraphPad Prism 5.

Experiment [4] deals with T3, PI3Kδ (Homo sapiens, UniProt O00329).
T3 construct: purchased Millipore Corporation 14-604-K
T3 sequence (O00329 whole entry): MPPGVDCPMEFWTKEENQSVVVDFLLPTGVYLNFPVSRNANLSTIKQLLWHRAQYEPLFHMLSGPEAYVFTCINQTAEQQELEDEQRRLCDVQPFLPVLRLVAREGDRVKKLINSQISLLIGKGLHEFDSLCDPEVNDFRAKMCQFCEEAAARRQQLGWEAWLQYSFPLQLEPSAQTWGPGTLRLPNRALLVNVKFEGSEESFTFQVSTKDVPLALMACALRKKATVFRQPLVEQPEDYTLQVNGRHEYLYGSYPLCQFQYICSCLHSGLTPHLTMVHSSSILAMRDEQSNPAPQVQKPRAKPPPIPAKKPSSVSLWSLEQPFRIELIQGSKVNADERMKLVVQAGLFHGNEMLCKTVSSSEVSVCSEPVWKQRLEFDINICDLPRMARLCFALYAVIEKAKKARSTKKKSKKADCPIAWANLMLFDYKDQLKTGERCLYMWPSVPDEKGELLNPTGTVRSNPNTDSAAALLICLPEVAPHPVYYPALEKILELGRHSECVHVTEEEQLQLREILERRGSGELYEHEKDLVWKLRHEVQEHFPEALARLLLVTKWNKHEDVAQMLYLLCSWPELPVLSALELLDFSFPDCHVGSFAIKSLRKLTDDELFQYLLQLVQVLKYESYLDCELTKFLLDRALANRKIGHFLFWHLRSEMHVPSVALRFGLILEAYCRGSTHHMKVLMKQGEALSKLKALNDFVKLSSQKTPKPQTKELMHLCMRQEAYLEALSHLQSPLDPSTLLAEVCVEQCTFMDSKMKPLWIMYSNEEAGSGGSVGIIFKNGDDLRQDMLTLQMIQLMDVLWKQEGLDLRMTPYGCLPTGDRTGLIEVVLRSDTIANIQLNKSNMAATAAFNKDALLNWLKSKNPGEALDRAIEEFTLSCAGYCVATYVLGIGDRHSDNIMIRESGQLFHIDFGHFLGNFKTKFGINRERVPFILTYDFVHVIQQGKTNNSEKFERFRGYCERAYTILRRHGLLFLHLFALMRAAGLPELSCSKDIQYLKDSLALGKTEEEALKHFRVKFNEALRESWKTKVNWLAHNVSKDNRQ
T3 sequence (P27986 whole entry partner): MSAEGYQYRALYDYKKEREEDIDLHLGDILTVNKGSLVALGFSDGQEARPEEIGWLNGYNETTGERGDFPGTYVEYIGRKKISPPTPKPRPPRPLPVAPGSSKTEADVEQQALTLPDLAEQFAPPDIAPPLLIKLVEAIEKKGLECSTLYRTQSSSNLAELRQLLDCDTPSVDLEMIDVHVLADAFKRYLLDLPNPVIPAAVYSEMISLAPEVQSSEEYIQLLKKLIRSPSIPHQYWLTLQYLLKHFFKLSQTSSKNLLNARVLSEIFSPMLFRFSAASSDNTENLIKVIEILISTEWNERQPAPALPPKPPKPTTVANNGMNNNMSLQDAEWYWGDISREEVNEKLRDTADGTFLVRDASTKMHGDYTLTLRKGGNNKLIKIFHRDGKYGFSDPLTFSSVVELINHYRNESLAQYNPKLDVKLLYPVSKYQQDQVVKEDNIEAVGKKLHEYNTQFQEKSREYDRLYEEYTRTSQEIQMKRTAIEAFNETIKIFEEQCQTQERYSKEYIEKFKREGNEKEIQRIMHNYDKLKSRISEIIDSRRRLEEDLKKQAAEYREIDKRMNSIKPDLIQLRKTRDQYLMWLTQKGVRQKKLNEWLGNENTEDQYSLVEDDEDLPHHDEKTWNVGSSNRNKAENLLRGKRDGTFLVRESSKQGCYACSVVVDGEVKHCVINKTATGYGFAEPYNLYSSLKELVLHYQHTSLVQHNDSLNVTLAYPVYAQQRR
As to the kind of experiment: PI3 Kinase HTRF assay, PI3Kδ. Format: biochemical. To be noted: 10 μM PIP2, 10 μM ATP; read-out: PI3K δ IC50. A digest of the protocol: as §1

Experiment [5] deals with T4, PI3Kβ (Homo sapiens, UniProt P42338).
T4 construct: purchased Millipore Corporation 14-603-K
T4 sequence (P42338 whole entry): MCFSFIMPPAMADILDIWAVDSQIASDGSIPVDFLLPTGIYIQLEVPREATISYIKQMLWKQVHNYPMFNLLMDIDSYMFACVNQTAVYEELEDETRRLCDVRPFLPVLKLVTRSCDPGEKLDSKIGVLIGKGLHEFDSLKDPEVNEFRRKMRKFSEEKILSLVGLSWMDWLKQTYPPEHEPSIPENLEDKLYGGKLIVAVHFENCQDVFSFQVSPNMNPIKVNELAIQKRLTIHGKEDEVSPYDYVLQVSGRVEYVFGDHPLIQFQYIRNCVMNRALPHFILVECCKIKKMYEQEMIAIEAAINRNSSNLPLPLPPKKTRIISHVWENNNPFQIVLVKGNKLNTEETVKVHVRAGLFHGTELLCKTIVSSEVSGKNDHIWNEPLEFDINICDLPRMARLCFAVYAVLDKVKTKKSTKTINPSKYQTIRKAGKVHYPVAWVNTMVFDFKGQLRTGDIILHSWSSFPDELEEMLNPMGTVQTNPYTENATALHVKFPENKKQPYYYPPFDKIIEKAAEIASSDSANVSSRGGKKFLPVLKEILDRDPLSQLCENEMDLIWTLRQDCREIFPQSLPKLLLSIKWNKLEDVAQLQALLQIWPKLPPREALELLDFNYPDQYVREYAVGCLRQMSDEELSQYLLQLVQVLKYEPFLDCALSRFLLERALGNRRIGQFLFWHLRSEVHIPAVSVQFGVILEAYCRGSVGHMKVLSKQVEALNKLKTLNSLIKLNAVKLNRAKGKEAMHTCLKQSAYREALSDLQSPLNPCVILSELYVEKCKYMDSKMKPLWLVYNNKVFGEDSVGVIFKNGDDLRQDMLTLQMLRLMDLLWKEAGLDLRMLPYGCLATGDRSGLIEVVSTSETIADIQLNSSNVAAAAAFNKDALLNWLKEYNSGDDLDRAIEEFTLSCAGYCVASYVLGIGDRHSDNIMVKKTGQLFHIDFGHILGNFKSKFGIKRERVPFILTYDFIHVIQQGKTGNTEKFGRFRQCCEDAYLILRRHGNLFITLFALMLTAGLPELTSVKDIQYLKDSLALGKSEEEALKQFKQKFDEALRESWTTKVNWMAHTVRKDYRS
T4 sequence (P27986 whole entry partner): as the sequence (P27986 whole entry partner) above
In words: PI3 Kinase HTRF assay, PI3Kβ. Format: biochemical. The note with it: 10 μM PIP2, 10 μM ATP; read-out: PI3K β IC50. In short, it runs like this:
as §1

T1 sequence (P42336 whole entry): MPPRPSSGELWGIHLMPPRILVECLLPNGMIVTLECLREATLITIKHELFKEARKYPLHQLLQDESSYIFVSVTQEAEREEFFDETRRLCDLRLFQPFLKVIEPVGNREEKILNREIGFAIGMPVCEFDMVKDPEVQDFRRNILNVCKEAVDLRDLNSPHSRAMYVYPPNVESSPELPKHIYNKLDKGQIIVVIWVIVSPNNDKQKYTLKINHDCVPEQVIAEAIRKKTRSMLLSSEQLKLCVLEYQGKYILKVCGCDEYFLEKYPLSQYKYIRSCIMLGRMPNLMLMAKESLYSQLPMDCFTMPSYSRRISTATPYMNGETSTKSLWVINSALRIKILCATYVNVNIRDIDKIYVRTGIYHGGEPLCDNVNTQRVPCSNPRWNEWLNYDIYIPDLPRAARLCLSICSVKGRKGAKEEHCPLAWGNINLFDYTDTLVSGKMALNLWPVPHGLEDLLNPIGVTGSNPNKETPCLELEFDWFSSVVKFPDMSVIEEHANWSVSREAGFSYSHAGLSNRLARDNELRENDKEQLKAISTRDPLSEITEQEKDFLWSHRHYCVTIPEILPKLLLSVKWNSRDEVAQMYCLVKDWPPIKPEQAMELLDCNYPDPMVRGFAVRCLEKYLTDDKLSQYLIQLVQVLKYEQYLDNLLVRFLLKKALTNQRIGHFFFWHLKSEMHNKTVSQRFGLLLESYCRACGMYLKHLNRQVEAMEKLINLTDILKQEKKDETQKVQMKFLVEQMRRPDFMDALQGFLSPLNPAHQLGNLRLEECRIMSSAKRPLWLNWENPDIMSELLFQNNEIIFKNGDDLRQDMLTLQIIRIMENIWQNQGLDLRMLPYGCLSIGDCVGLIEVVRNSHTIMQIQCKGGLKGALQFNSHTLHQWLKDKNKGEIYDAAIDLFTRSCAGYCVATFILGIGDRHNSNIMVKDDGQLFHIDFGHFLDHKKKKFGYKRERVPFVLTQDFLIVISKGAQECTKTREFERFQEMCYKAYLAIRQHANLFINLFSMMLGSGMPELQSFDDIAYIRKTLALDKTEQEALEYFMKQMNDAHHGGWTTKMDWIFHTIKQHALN
T1 sequence (P27986 whole entry partner): as the sequence (P27986 whole entry partner) above

For `C[C@H](Nc1ncnc2cccnc12)c1cc2cccc(Cl)c2c(C(=O)N2C3CCC2COC3)n1` [Compound 123], the 50% inhibitory concentration (IC50) was less than 10 µM in experiment [1]; less than 1 µM in experiment [2]; less than 0.1 µM in experiment [3]; less than 0.1 µM in experiment [4]; less than 10 µM in experiment [5].
Consider `C[C@H](Nc1ncnc2scnc12)c1cc2cccc(Cl)c2c(C(=O)N2C3CCC2COC3)n1` [Compound 124], for which the IC50 in experiment [1] is less than 10 µM; in experiment [2], less than 1 µM; in experiment [3] it was less than 0.1 µM; in experiment [4] it was less than 0.1 µM; in experiment [5] it was less than 1 µM.
Turning to `C[C@H](Nc1ccnc2ccnn12)c1cc2cccc(Cl)c2c(C(=O)N2C3CCC2COC3)n1` [Compound 125], the IC50 in experiment [1] was more than 10 µM; in experiment [2] it was less than 10 µM; in experiment [3], less than 0.1 µM; in experiment [4], less than 0.1 µM; in experiment [5], less than 10 µM.
For the compound `C[C@H](Nc1ncnc2[nH]cnc12)c1cc2cccc(Cl)c2c([S+]([O-])CCN2CCOCC2)n1` (some centres unmarked) [Compound 129], the concentration for half-maximal inhibition (IC50) in experiment [1] was less than 10 µM; in experiment [2] it was less than 1 µM; in experiment [3], less than 1 µM; in experiment [4], less than 0.1 µM; in experiment [5], less than 1 µM.
Take `C[C@H](Nc1ncnc2[nH]cnc12)c1cc2cccc(Cl)c2c(SCCN2CCCC2)n1` [Compound 135]: the IC50 was more than 10 µM in experiment [1]; more than 10 µM in experiment [2]; less than 1 µM in experiment [3]; less than 0.1 µM in experiment [4]; less than 10 µM in experiment [5].
As for `C[C@H](Nc1ncnc2[nH]cnc12)c1cc2cccc(Cl)c2c([S+]([O-])CCN2CCCC2)n1` (some centres unmarked) [Compound 136], the half-inhibitory concentration (IC50) in experiment [1] was less than 10 µM; in experiment [2] it was less than 10 µM; in experiment [3], less than 0.1 µM; in experiment [4], less than 0.1 µM; in experiment [5], less than 10 µM.
`C[C@H](Nc1ncnc2scnc12)c1cc2cccc(Cl)c2c(C(=O)NC2CCOCC2)n1` [Compound 144]: the IC50 is more than 10 µM in experiment [1]; less than 10 µM in experiment [2]; less than 0.1 µM in experiment [3]; less than 0.1 µM in experiment [4]; more than 10 µM in experiment [5].
With `Cc1cccc2cc([C@H](C)Nc3ncnc4[nH]cnc34)nc(OCCN3CCCC3)c12` [Compound 145], the IC50 in experiment [1] is more than 10 µM; in experiment [2] it was more than 10 µM; in experiment [3] it was less than 0.1 µM; in experiment [4], less than 0.1 µM; in experiment [5] it was less than 10 µM.
`Cc1cccc2cc([C@H](C)Nc3ncnc4[nH]cnc34)nc(CCN3CCOCC3)c12` [Compound 146]: the half-inhibitory concentration (IC50) in experiment [1] is more than 10 µM; in experiment [2] it was less than 10 µM; in experiment [3], less than 0.1 µM; in experiment [4], less than 0.1 µM; in experiment [5], less than 10 µM.
Turning to `Cc1cccc2cc([C@H](C)Nc3ncnc4[nH]cnc34)nc(C(=O)N3C4CCC3COC4)c12` [Compound 149], the concentration for half-maximal inhibition (IC50) in experiment [1] was more than 10 µM; in experiment [2] it was less than 10 µM; in experiment [3], less than 0.1 µM; in experiment [4], less than 0.1 µM; in experiment [5] it was more than 10 µM.
Turning to `C[C@H](Nc1ncnc2[nH]cnc12)c1cc2cccc(-c3cnn(C)c3)c2c(OCCN2CCCC2)n1` [Compound 151], the IC50 in experiment [1] was more than 10 µM; in experiment [2] it was less than 10 µM; in experiment [3], less than 0.1 µM; in experiment [4], less than 0.1 µM; in experiment [5], less than 10 µM.
Take `CC(C)N1CCC(Oc2nc([C@H](C)Nc3ncnc4[nH]cnc34)cc3cccc(-c4cnn(C)c4)c23)CC1` [Compound 158]: the IC50 in experiment [1] is more than 10 µM; in experiment [2] it was more than 10 µM; in experiment [3], less than 1 µM; in experiment [4] it was less than 0.1 µM; in experiment [5] it was less than 10 µM.
For the compound `CC(C)N1CCC(Oc2nc([C@H](C)Nc3ncnc4cccnc34)cc3cccc(-c4cnn(C)c4)c23)CC1` [Compound 160], the concentration for half-maximal inhibition (IC50) in experiment [1] was less than 10 µM; in experiment [2], less than 10 µM; in experiment [3] it was less than 0.1 µM; in experiment [4], less than 0.1 µM; in experiment [5], more than 10 µM.
In the case of `Cc1cccc2cc([C@H](C)Nc3ncnc4cccnc34)nc(OCCN3CCCC3)c12` [Compound 162], the IC50 was less than 1 µM in experiment [1]; less than 1 µM in experiment [2]; less than 0.1 µM in experiment [3]; less than 0.1 µM in experiment [4]; less than 10 µM in experiment [5].
Take `Cc1cccc2cc([C@H](C)Nc3ncnc4cccnc34)nc(OC3CCN(C(C)C)CC3)c12` [Compound 163]: the 50% inhibitory concentration (IC50) is less than 10 µM in experiment [1]; less than 10 µM in experiment [2]; less than 0.1 µM in experiment [3]; less than 0.1 µM in experiment [4]; more than 10 µM in experiment [5].
For the compound `Cc1cccc2cc([C@H](C)Nc3ncnc4cccnc34)nc(N3CCN(C)CC3)c12` [Compound 164], the IC50 in experiment [1] is less than 10 µM; in experiment [2], less than 10 µM; in experiment [3] it was less than 0.1 µM; in experiment [4], less than 0.1 µM; in experiment [5], less than 10 µM.
In the case of `Cc1cccc2cc([C@H](C)Nc3ncnc4cccnc34)nc(CCN3CCOCC3)c12` [Compound 165], the IC50 in experiment [1] was less than 10 µM; in experiment [2] it was less than 10 µM; in experiment [3], less than 0.1 µM; in experiment [4], less than 0.1 µM; in experiment [5] it was more than 10 µM.
Consider `Cc1cccc2cc([C@H](C)Nc3ncnc4cccnc34)nc(C(=O)N3CCOCC3)c12` [Compound 166], for which the IC50 in experiment [1] is less than 10 µM; in experiment [2], less than 1 µM; in experiment [3] it was less than 0.1 µM; in experiment [4] it was less than 0.1 µM; in experiment [5], less than 10 µM.
Turning to `Cc1cccc2cc([C@H](C)Nc3ncnc4cccnc34)nc(C(=O)N3C4CCC3COC4)c12` [Compound 167], the concentration for half-maximal inhibition (IC50) in experiment [1] was less than 10 µM; in experiment [2], less than 1 µM; in experiment [3] it was less than 0.1 µM; in experiment [4] it was less than 0.1 µM; in experiment [5] it was less than 10 µM.
Consider `C[C@H](Nc1ncnc2scnc12)c1cc2cccc(Cl)c2c(OC2CCN(S(C)(=O)=O)CC2)n1` [Compound 172], for which the 50% inhibitory concentration (IC50) in experiment [1] is more than 10 µM; in experiment [2] it was less than 10 µM; in experiment [3] it was less than 1 µM; in experiment [4] it was less than 0.1 µM; in experiment [5], less than 10 µM.
For the compound `C[C@H](Nc1ncnc2cccnc12)c1cc2cccc(Cl)c2c(OC2CCN(S(C)(=O)=O)CC2)n1` [Compound 173], the IC50 in experiment [1] is more than 10 µM; in experiment [2] it was less than 10 µM; in experiment [3], less than 1 µM; in experiment [4], less than 0.1 µM; in experiment [5], less than 10 µM.
As for `C[C@H](Nc1ccnn2ccnc12)c1cc2cccc(Cl)c2c(OC2CCN(S(C)(=O)=O)CC2)n1` [Compound 176], the half-inhibitory concentration (IC50) is more than 10 µM in experiment [1]; less than 10 µM in experiment [2]; less than 1 µM in experiment [3]; less than 0.1 µM in experiment [4]; less than 10 µM in experiment [5].
As for `C[C@H](Nc1ccnc2ccnn12)c1cc2cccc(Cl)c2c(C(=O)NC2CCOCC2)n1` [Compound 177], the half-maximal inhibitory concentration (IC50) in experiment [1] was more than 10 µM; in experiment [2], more than 10 µM; in experiment [3], less than 0.1 µM; in experiment [4], less than 0.1 µM; in experiment [5], more than 10 µM.
As for `C[C@H](Nc1ccnn2ccnc12)c1cc2cccc(Cl)c2c(C(=O)NC2CCOCC2)n1` [Compound 180], the IC50 in experiment [1] is more than 10 µM; in experiment [2], more than 10 µM; in experiment [3] it was less than 0.1 µM; in experiment [4], less than 0.1 µM; in experiment [5] it was more than 10 µM.
For the compound `C[C@H](Nc1ccnn2ccnc12)c1cc2cccc(Cl)c2c(OCCN2CCCC2)n1` [Compound 182], the IC50 was more than 10 µM in experiment [1]; more than 10 µM in experiment [2]; less than 1 µM in experiment [3]; less than 0.1 µM in experiment [4]; more than 10 µM in experiment [5].
`C[C@H](Nc1ncnc2[nH]cnc12)c1cc2cccc(-c3cnn(C)c3)c2c(C(=O)N2CCOCC2)n1` [Compound 185]: the IC50 is more than 10 µM in experiment [1]; less than 10 µM in experiment [2]; less than 0.1 µM in experiment [3]; less than 0.1 µM in experiment [4]; more than 10 µM in experiment [5].
With `C[C@H](Nc1ccnn2ccnc12)c1cc2cccc(Cl)c2c(C(=O)N2CCOCC2)n1` [Compound 188], the IC50 in experiment [1] is less than 10 µM; in experiment [2], less than 1 µM; in experiment [3], less than 0.1 µM; in experiment [4], less than 0.1 µM; in experiment [5], less than 1 µM.
On to `C[C@H](Nc1ccnn2ccnc12)c1cc2cccc(Cl)c2c(C(=O)N2C3CCC2COC3)n1` [Compound 189], for which the IC50 in experiment [1] was more than 10 µM; in experiment [2], less than 10 µM; in experiment [3], less than 0.1 µM; in experiment [4], less than 0.1 µM; in experiment [5], less than 10 µM.
